The values below come from patent US20170066741A1, “2-Amino-3,5,5-Trifluoro-3,4,5,6-Tetrahydropyridines as BACE1 Inhibitors for Treatment of Alzheimer's Disease” (H. Lundbeck A/S, priority 2014, published 2017).

One may read the inhibition as the change of the read-out against control, counted positive when it falls.

This test deals with T1, BACE1 enzyme (Homo sapiens, UniProt P56817).
T1 construct: purchased Life Technologies P2985
T1 sequence (P56817 46-501): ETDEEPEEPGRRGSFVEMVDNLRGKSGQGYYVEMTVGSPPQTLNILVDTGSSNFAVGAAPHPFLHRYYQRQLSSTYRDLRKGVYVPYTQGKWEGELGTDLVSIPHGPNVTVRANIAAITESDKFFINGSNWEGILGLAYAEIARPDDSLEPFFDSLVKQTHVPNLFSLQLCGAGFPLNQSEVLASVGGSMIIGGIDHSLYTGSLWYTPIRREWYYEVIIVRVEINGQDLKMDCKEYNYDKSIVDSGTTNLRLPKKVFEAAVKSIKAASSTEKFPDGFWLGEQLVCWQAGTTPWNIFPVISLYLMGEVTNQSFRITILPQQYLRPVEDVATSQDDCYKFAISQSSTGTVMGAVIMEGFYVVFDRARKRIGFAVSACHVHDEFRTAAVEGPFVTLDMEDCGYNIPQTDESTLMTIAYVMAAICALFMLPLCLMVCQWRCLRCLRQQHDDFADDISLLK
Nature of the test: BACE1 efficacy assay (FRET-based, commercial BACE1 kit). In kind it is biochemical. The following applies: test compound 10 μM. As to the method: The efficacy assay was performed as a FRET-based assay using a commercially available BACE1 kit (Life Technologies, P2985). 2 μl test compound at 10 μM (final concentration) and 15 μl BACE1 enzyme from the kit (final concentration 3 nM) were preincubated for 15 minutes at room temperature before addition of […] of substrate from the kit (250 nM final concentration) and incubated for additional 90 minutes at room temperature. The assay plate was subsequently read in a Pherastar (Ex540/Em590). […] The efficacy of the test compounds was evaluated at 10 μM (final concentration) and defined as the percent inhibition of the enzyme activity using the equation % inhibition=100%−normalized enzyme activity in percent.
With `COc1ccc(C(=O)Nc2ccc(F)c([C@@]3(C)N=C(N)[C@@](C)(F)CC3(F)F)c2)nc1` [Compound 17, N-(3-((2R,5S)-6-amino-3,3,5-trifluoro-2,5-dimethyl-2,3,4,5-tetrahydropyridin-2-yl)-4-fluorophenyl)-5-methoxypicolinamide], the inhibition at 10 µM came out at 101%.

`Cc1cc(C#N)cnc1C(=O)Nc1ccc(F)c([C@@]2(C)N=C(N)[C@@](C)(F)CC2(F)F)c1` [Compound 18, N-(3-((2R,5S)-6-amino-3,3,5-trifluoro-2,5-dimethyl-2,3,4,5-tetrahydropyridin-2-yl)-4-fluorophenyl)-5-cyano-3-methylpicolinamide]: the inhibition at 10 µM came to 102%. On to `C[C@@]1(F)CC(F)(F)[C@@](C)(c2cc(NC(=O)c3ccn(C(F)F)n3)ccc2F)N=C1N` [Compound 23, N-(3-((2R,5R)-6-amino-3,3,5-trifluoro-2,5-dimethyl-2,3,4,5-tetrahydropyridin-2-yl)-4-fluorophenyl)-1-(difluoromethyl)-1H-pyrazole-3-carboxamide], for which the inhibition at 10 µM came out at 102%.
